# From patent publication US6589973B1, “Preparation of selective cyclooxygenase II inhibitors” (THEMIS Medicare Ltd., priority 2002, dated 2003)
# Experiments:
# [1] = background statement; cited from earlier work
# [2] = tested on: Hot Plate Analgesometer in rats; experiment: Central analgesic activity, hot plate (55° C) in rats; design: species or system Albino rats; conditions: rat, in vivo
Molecule,solubility in water (in words) [1],also measured
Cc1ccc(-c2cc(C(F)(F)F)nn2-c2ccc(S(N)(=O)=O)cc2)cc1 [Celecoxib],poorly soluble in water,
COc1ccc(-c2cc(C(F)F)nn2-c2ccc(S(N)(=O)=O)cc2)cc1F [Deracoxib],poorly soluble in water,
CC(C)=CCN1CCC2(C)c3cc(O)ccc3CC1C2C (centres unmarked) [Pentazocin],,% Increase in Reaction Time (IRT) [2]: 92.85%; Basal Reaction Time (BRT) [2]: 6.33 ± 0.41 s; Latent Reaction Time (LRT) [2]: 11.66 ± 1.60 s
CS(=O)(=O)c1ccc(C2=C(c3ccccc3)C(=O)OC2)cc1 [Rofecoxib],poorly soluble in water,
Cc1onc(-c2ccccc2)c1-c1ccc(S(N)(=O)=O)cc1 [Valdecoxib],poorly soluble in water,
Itacoxib,poorly soluble in water,
